Data on 71 compounds can be found in PubChem BioAssay AID743396 (Broad Institute, 2014).

SMILES strings stand for the structures. Calls of active or inactive are those of the source.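 The calls were made as follows: active = fitted curve reaches a 40% rise in fluorescent cells at or below the top valid dose; inactive = opposite-direction effect, or the rest.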

The first test in a line: autofluorescent compounds in non-GFP fibroblasts, dose response, artefact control for X-chromosome reactivation project, imaging, mTEFS fibroblasts, cherry-pick (AID 743396).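 Also: raw share of Hoechst-counted cells scored GFP positive without control normalization.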 The following applies: mTEFS fibroblasts autofluorescence, GFP-channel imaging, 3 days; at 6.8 µM (top of the series); cells pretreated with 5-aza-dC.
`CCN1/C(=C/c2ccc3cc(C)ccc3[n+]2CC)Sc2cc(C)c(C)cc21`: the % fluorescent cells increase was 27.9% (inactive).

Staying with this test, now noted: mTEFS fibroblasts autofluorescence, GFP-channel imaging, 3 days; at 19.5 µM (top of the series).
Regarding `COC(=O)Cn1cc(/C=C2\C(=O)NC(=O)N(c3ccc(OC)cc3)C2=O)c2ccccc21`, the % fluorescent cells increase was 0.304% (inactive).

On to `Cc1cc(=O)oc2cc3c(cc12)CCCN3`, for which the % fluorescent cells increase was 0.269% (inactive).

Staying with this test, now noted: mTEFS fibroblasts autofluorescence, GFP-channel imaging, 3 days; at 19.5 µM (top of the series); cells pretreated with 5-aza-dC.
Regarding `O=CNc1ccc2c(c1)Cc1cc([N+](=O)[O-])ccc1-2`, the % fluorescent cells increase was 0.119% (inactive).

As to `CCc1nc(C)cn1S(=O)(=O)c1ccc([N+](=O)[O-])cc1`, the % fluorescent cells increase was 0.011% (inactive). Same read-out and setting: for `CC(=O)Nc1sc(N/N=C/c2ccc(N(C)C)cc2)nc1-c1ccc(C)cc1` the value was -0.004% (inactive). For `COC(=O)c1c(NC(=O)c2ccc(C)cc2)csc1C`, the % fluorescent cells increase is -0.006% (inactive). Same read-out and setting: for `CCCCNc1nc2c(-c3ccccc3)nnn2c2ccccc12` the value was 0.006% (inactive); for `C[C@@H]1CN([C@@H](C)CO)C(=O)c2cc(NS(=O)(=O)c3ccccc3)ccc2O[C@@H](C)CCCCO[C@@H]1CN(C)Cc1ccc2c(c1)OCO2`, 0% (inactive). The same measure, in the same setting: for `CSc1ccc(CN2C(=O)NC3(CCCCCCC3)C2=O)cc1` the value was -0.004% (inactive); for `CC(C)CC#Cc1ccc([C@@H]2[C@@H](CO)N3C(=O)CN(C(=O)c4cccc(F)c4)C[C@H]23)cc1`, -0.108% (inactive); for `Cc1c(/C=N\NC(=O)c2cc3ccccc3o2)c2ccccc2n1C`, 0% (inactive).

With `C[C@H]1CCCCO[C@@H](CN(C)C(=O)Nc2ccc(C(F)(F)F)cc2)[C@@H](C)CN([C@@H](C)CO)C(=O)c2cc(NC(=O)CCC(F)(F)F)ccc2O1`, the % fluorescent cells increase is -0.166% (inactive). Consider `CC(C)c1ccc(N2C(=O)/C(=C/N(C)C)SC2=S)cc1`, for which the % fluorescent cells increase was 0.026% (inactive). Same read-out and setting: for `O=c1[nH]cnc2c1ncn2[C@H]1CC[C@@H](CO)O1` the value was 0.722% (inactive); for `CC(C)(C)[S@@](=O)N1Cc2cc(C(=O)N3CCCCC3)nc(-c3cccc(-c4cccc(C#N)c4)c3)c2[C@H]1CCO`, 0.101% (inactive); for `C[C@@H]1CN([C@H](C)CO)C(=O)c2cc(NS(=O)(=O)c3ccc(F)cc3)ccc2O[C@@H](C)CCCCO[C@@H]1CN(C)Cc1ccc2c(c1)OCO2`, 0% (inactive).

On to `O=[N+]([O-])c1ccc(/C=N/NC(=S)Nc2ccc(Cl)cc2Cl)s1`, for which the % fluorescent cells increase is 0.614% (inactive).

Consider `COc1cccc2cc(C(=O)N(Cc3cccs3)CC3CCCO3)c(=O)oc12` (stereo unspecified), for which the % fluorescent cells increase is 0.013% (inactive).

With `COc1ccc2c3c([nH]c2c1)[C@@H](CO)N(Cc1cc(F)ccc1F)CC31CCN(C(C)=O)CC1`, the % fluorescent cells increase was 0% (inactive). Same read-out and setting: with `CCOc1cccc(/C=N/NC(=S)Nc2cc(S(=O)(=O)N3CCOCC3)ccc2N2CCOCC2)c1O` the figure was 0% (inactive). On the same count and under the same terms, with `COc1ccc(Nc2nc(N)c(C(=O)c3ccc(F)cc3)s2)cc1` the figure was 0% (inactive); with `CC(=O)c1ccc(NS(=O)(=O)c2ccc(N/C=C/C(=O)c3ccc(F)cc3)cc2)cc1`, 0% (inactive); with `COc1ccc(-n2c(=O)n(Cc3ccccc3)c(=O)c3[nH]cnc32)cc1`, 0.008% (inactive). The same measure, in the same setting: with `CN1c2ccc(-c3ccc(C#N)cc3)cc2[C@@H]2[C@@H](CCN2C(=O)NC2CCCCC2)[C@H]1CO` the figure was 0.092% (inactive); with `O=C1c2ccccc2C(=Cc2cccnc2)c2ccccc21`, 0.125% (inactive); with `CN(C)c1ccc(NC2=C(Cl)C(=O)c3ccccc3C2=O)cc1`, -0.006% (inactive). `COc1ccc(-n2nc(C#N)c(Cl)cc2=O)cc1`: the % fluorescent cells increase is -0.006% (inactive). Take `COc1ccc(-c2ccc3[nH]c4c(c3c2)CCN2C(=O)[C@@H]([C@H](C)O)[C@@H](N(C)C(=O)Nc3ccc(F)cc3)C[C@@H]42)cc1`: the % fluorescent cells increase is 10.8% (inactive). Turning to `CCOC(=O)N1CCN(Cc2cc(Cl)c3cccnc3c2O)CC1`, the % fluorescent cells increase was 0% (inactive).

As for `Cc1ccc(-c2csc3nc4c5ccccc5c(NCCCN(C)C)nn4c(=O)c23)cc1`, the % fluorescent cells increase was 0% (inactive).

Turning to `C=CCn1c(SCC(=O)N(CC)C2CCS(=O)(=O)C2)nc2sc3c(c2c1=O)CCC3` (stereo unspecified), the % fluorescent cells increase is 0.034% (inactive). Still for that read-out and setting: with `COc1ccc(-c2ccc(C3[C@@H]4CN(S(=O)(=O)c5ccccc5C)C[C@H]3N4)cc2)cc1` (stereo partly specified) the figure was 0% (inactive); with `O=C(CCl)N=c1sccn1Cc1ccc(Cl)cc1Cl`, 0% (inactive). The same measure, in the same setting: with `O=C(Nc1cccc(S(=O)(=O)NC2=NCCC2)c1)C1CC(=O)N(c2ccc3c(c2)OCCO3)C1` (stereo unspecified) the figure was -0.007% (inactive); with `C#Cc1cc(N2CCN(C(=O)c3ccoc3)CC2)n2nc(-c3cccc(Cl)c3)cc2n1`, 7.21% (inactive); with `O=[N+]([O-])c1ccc(S(=O)(=O)c2ccccc2)nc1`, -0.004% (inactive). Same read-out and setting: for `COC(C(=O)NCc1ccc(C)cc1)c1ccccc1` (stereo unspecified) the value was 0% (inactive). Consider `Cc1ccc(NC(=O)c2ccc(=O)[nH]c2)cc1S(=O)(=O)N1CCCCCC1`, for which the % fluorescent cells increase was 0.615% (inactive). On the same count and under the same terms, with `COc1cccc(NC(=O)N(C)C[C@@H]2Oc3cc(Br)ccc3S(=O)(=O)N([C@@H](C)CO)C[C@H]2C)c1` the figure was 0.017% (inactive); with `O=C(Nc1cccc(C(=O)O)c1)/C(=C\c1ccccc1)NC(=O)c1ccc(Br)o1`, 0% (inactive); with `O=C(N/N=C/c1ccc([N+](=O)[O-])o1)c1cc2ccccc2o1`, 1.73% (inactive). `CN(C)C(=O)CN1CCN(Cc2nc(CC3CC3)no2)CC1`: the % fluorescent cells increase is 0.246% (inactive). Still for that read-out and setting: with `O=C(COC(=O)COc1cccc(C(F)(F)F)c1)NC1CCS(=O)(=O)C1` (stereo unspecified) the figure was 0.015% (inactive); with `COc1cccc(-c2ccc(C3[C@@H]4CN(C(=O)C5CCCCC5)C[C@H]3N4)cc2)c1` (stereo partly specified), 0% (inactive). Still for that read-out and setting: with `C[C@@H]1CCCCO[C@H](CN(C)Cc2ccc3c(c2)OCO3)[C@@H](C)CN([C@H](C)CO)C(=O)c2cc(NS(=O)(=O)c3ccc(F)cc3)ccc2O1` the figure was 0.175% (inactive). On to `C[C@@H]1CN([C@@H](C)CO)C(=O)c2cc(NS(C)(=O)=O)ccc2O[C@@H](C)CCCCO[C@@H]1CN(C)Cc1ccccc1`, for which the % fluorescent cells increase was 0.259% (inactive). On the same count and under the same terms, with `Nc1nnc(SCC(=O)c2ccc([N+](=O)[O-])cc2)s1` the figure was -0.007% (inactive); with `CC(=O)Nc1ccc(S(=O)(=O)N(C)c2ccc(OCC(=O)NCCc3ccccc3F)cc2)cc1`, 0.014% (inactive); with `COc1ccc(C2=C(c3ccccc3)OC(OC)c3cc(F)ccc32)cn1` (stereo unspecified), 0.033% (inactive). On the same count and under the same terms, for `CCCCOc1nc2ccccc2nc1NS(=O)(=O)c1ccc(F)cc1` the value was 0% (inactive); for `O=[N+]([O-])c1ccc(Sc2nnnn2-c2ccccc2)nc1`, -0.007% (inactive); for `CC(C)Oc1ccc(/C(O)=C2/C(=O)C(=O)N(CCN(C)C)C2c2cccs2)cc1` (stereo unspecified), 0% (inactive). On the same count and under the same terms, with `CC(Sc1nnc(Cc2ccccc2)o1)C(=O)Nc1ccccc1[N+](=O)[O-]` (stereo unspecified) the figure was -0.011% (inactive); with `O=C(CCl)N=c1sccn1Cc1cccc2ccccc12`, 9.31% (inactive); with `O=C1CCCC(O)=C1Sc1cc(Cl)c(Cl)cc1Cl`, 0% (inactive). Turning to `COc1ccc(C(=O)N/N=C/c2cc(Br)ccc2O)cc1OC`, the % fluorescent cells increase was 4.96% (inactive). `CCc1ccc(NS(=O)(=O)c2cccc3nonc23)cc1`: the % fluorescent cells increase is 5.79% (inactive).

Consider `Cc1nnc(-c2ccc(N3CCCCCC3)c([N+](=O)[O-])c2)o1`, for which the % fluorescent cells increase was 0% (inactive).

In the case of `CCN1CCN(c2cc(C)c3cc(NC(=O)c4cccs4)ccc3n2)CC1`, the % fluorescent cells increase is 0.257% (inactive). Still for that read-out and setting: with `CCOc1ccc(C(Nc2cccnc2)c2cc(Cl)c3cccnc3c2O)cc1` (stereo unspecified) the figure was 0% (inactive). On to `Cc1cccc(NCc2ccc(O)c3ncccc23)c1C`, for which the % fluorescent cells increase is 0.074% (inactive). The same measure, in the same setting: with `COc1ccc2c3c(n(C)c2c1)[C@@H](CO)N(C(=O)NC(C)C)CC31CN(C(C)=O)C1` the figure was -0.138% (inactive); with `CCOC(=O)c1ccc(NC(=O)c2ccnn2C)cc1`, 0% (inactive); with `COc1cc(CNc2nc3ccccc3n2C)cc(OC)c1OC`, 0% (inactive).

For the compound `C[C@@H]1CCCCO[C@@H](CN(C)C(=O)Nc2ccc(C(F)(F)F)cc2)[C@@H](C)CN([C@H](C)CO)C(=O)c2cc(NS(=O)(=O)c3ccc(F)cc3)ccc2O1`, the % fluorescent cells increase was -0.166% (inactive). The same measure, in the same setting: with `CC1=Nc2ccccc2/C1=C\c1sc(Nc2ccc(C)cc2)nc1O` the figure was 0.199% (inactive); with `Cc1ccc(NC(=O)c2ncn(CCCNCCCN(C)C)n2)cc1C`, 0% (inactive).

Regarding `COc1ccc(CN(C)C[C@H]2OCCCC[C@H](C)Oc3ccc(NC(=O)Nc4ccc(F)cc4)cc3C(=O)N([C@H](C)CO)C[C@H]2C)cc1`, the % fluorescent cells increase is 0.183% (inactive).

Still in this test, the particulars now being: mTEFS fibroblasts autofluorescence, GFP-channel imaging, 3 days; at 21 µM (top of the series); cells pretreated with 5-aza-dC.
Take `Cc1noc(C)c1NC(=O)N(C)C[C@@H]1Oc2ccc(NC(=O)C3CC3)cc2CC(=O)N([C@@H](C)CO)C[C@@H]1C`: the % fluorescent cells increase is 0.068% (inactive). The same measure, in the same setting: with `CO[C@H](CN(C)C(=O)Nc1ccc(C(F)(F)F)cc1)[C@@H](C)CN(Cc1ccccc1Cl)[C@@H](C)CO` the figure was 0% (inactive).
